# Measurements taken from patent publication EP2386565A2, “Compounds and methods to inhibit or augment an inflammatory response” (Cambridge Enterprise Ltd., priority 1999, dated 2000).
# Several values for one entry are separate records, joined by “and”; a condition that tells them apart may be missing. Equal entries are not always repeated. Positions of bridges follow the written chain, without caps; N, C: chain ends. Non-standard residues stand in square brackets, D forms with d. Residues, ends and D or L forms follow the SMILES beside them.
# Key:
# [1] = tested on: T cell-dependent and T cell-independent antibody response; test: Antibody response after immunization with sheep red blood cells; set-up: species or system mice; conditions: mouse, in vivo
# [2] = tested on: ovalbumin-induced pulmonary inflammation, IgE, IL-4 and recall responses; test: Ovalbumin-induced asthma / hypersensitivity model; assay type: in vivo, mice; set-up: Total IgE (Serum), individual mice m1-m4 / Total IgE (Serum), Avg.: unit not given here
# Description: A third study assessed the efficacy of daily dosing with CRD-Leu4Ile11Cys13 peptide 3(3-12)[MCP-1] to reduce OVA-induced pulmonary inflammation. Mice were sensitized with 0.1 mg of ovalbumin or PBS (diluent control) intraperitoneally in the absence of the test agent. […] These treatments were given daily from day 8 through day 21. On day 8, thirty minutes following treatment, mice were challenged intratracheally with 1% ovalbumin or PBS. On days 15, 18, and 21, thirty minutes following treatment, mice were challenged intratracheally with 2% ovalbumin or PBS. Mice were sacrificed 3 hours post-ovalbumin challenge, on day 21. Lungs were collected for histopathology, and for isolation of cells for total cell counts and FACS analysis. Bronchalveolar lavage (BAL) was collected for eicosinoid levels. Serum was collected for IgE and IL-4 levels. Spleens were collected for cytokine recall responses. […]
# [3] = Group 2: Ova on days 8, 15, 18, 21, treat 1 × day 21, sacrifice day 21, 0 µg/ml Ova
# [4] = Group 4: Ova on days 8, 15, 18, 21 & 35, treat BID 14 days, sacrifice day 35 (recent Ova challenge), 0 µg/ml Ova
smiles,measurement,setting,value
CC[C@@H](C)[C@H]1NC(=O)[C@@H](CCC(N)=O)NC(=O)[C@H](N)CSSC[C@H](C(N)=O)NC(=O)[C@@H](CC(C)C)NC(=O)[C@@H](CC(=O)O)NC(=O)[C@H]2CCCN2C(=O)[C@@H](CCCCN)NC(=O)[C@@H](CCC(N)=O)NC(=O)[C@@H](CCCCN)NC(=O)[C@@H](Cc2c[nH]c3ccccc23)NC1=O (H-[dC][dQ][dI][dW][dK][dQ][dK][dP][dD][dL][dC]-NH2; disulfide 1-11),T cell-dependent antibody response (in words),[1],prevented
same,"Total IgE (Serum), Avg.",[2]; Group 2,1.505
same,"Total IgE (Serum), individual mice m1-m4",[2]; Group 2 (single treatment day 21),1.952 and 1.132 and 2.073 and 0.863
same,"IL-4 Assays, pg/ml IL-4, Avg. of Group",[2]; [3],2.89 pg/mL
same,"IL-4 Assays, pg/ml IL-4, individual mice m1-m4",[2]; [3],2.81 pg/mL and 5.60 pg/mL and 0.25 pg/mL and 0.45 pg/mL
same,"Total IgM + IgG (1 week splenocyte cultures), Avg.",[2]; [3],57.45
same,"Total IgM + IgG (1 week splenocyte cultures), individual mice m1-m4",[2]; [3],108.00 and 24.97 and 40.65 and 56.17
same,Total IgE (1 week splenocyte cultures),"[2]; Group 2, 0 µg/ml Ova",0.067 ng/mL
same,"Total IgE (1 week splenocyte cultures), Avg.","[2]; Group 2, 0 µg/ml Ova",0.017
same,"Total IgE (1 week splenocyte cultures), individual mice m1-m4","[2]; Group 2, 0 µg/ml Ova",0.000 and 0.051 and 0.007 and 0.009
same,"IL-4 Assays, pg/ml IL-4, Avg. of Group","[2]; Group 2, 5 µg/ml Ova",5.86 pg/mL
same,"IL-4 Assays, pg/ml IL-4, individual mice m1-m4","[2]; Group 2, 5 µg/ml Ova",3.18 pg/mL and 8.55 pg/mL
same,Total IgE (1 week splenocyte cultures),"[2]; Group 2, 5 µg/ml Ova",0.128 ng/mL
same,"Total IgE (1 week splenocyte cultures), Avg.","[2]; Group 2, 5 µg/ml Ova",0.032
same,"Total IgE (1 week splenocyte cultures), individual mice m1-m4","[2]; Group 2, 5 µg/ml Ova",0.041 and 0.023
same,"Total IgM + IgG (1 week splenocyte cultures), Avg.","[2]; Group 2, 5 µg/ml Ova",150.46
same,"Total IgM + IgG (1 week splenocyte cultures), individual mice m1-m4","[2]; Group 2, 5 µg/ml Ova",254.36 and 46.56
same,"IL-4 Assays, pg/ml IL-4, Avg. of Group","[2]; Group 2, 50 µg/ml Ova",12.57 pg/mL
same,"IL-4 Assays, pg/ml IL-4, individual mice m1-m4","[2]; Group 2, 50 µg/ml Ova",7.10 pg/mL and 11.46 pg/mL and 19.15 pg/mL and 75.36 pg/mL
same,Total IgE (1 week splenocyte cultures),"[2]; Group 2, 50 µg/ml Ova",0.024 ng/mL
same,"Total IgE (1 week splenocyte cultures), Avg.","[2]; Group 2, 50 µg/ml Ova",0.006
same,"Total IgE (1 week splenocyte cultures), individual mice m1-m4","[2]; Group 2, 50 µg/ml Ova",0.011 and 0.002 and 0.004 and 0.007
same,"Total IgM + IgG (1 week splenocyte cultures), Avg.","[2]; Group 2, 50 µg/ml Ova",241.75
same,"Total IgM + IgG (1 week splenocyte cultures), individual mice m1-m4","[2]; Group 2, 50 µg/ml Ova",137.57 and 176.41 and 331.79 and 321.23
same,ng/ml IgE (4X avg.),"[2]; Group 2, serum",6.020 ng/mL
same,"Total IgE (Serum), Avg.",[2]; Group 4,0.621
same,"Total IgE (1 week splenocyte cultures), individual mice m1-m4","[2]; Group 4 (recent Ova challenge), 0 µg/ml Ova, listed as CRD-Leu4Ile11Cys13peptide 3(3-12)[MCP-1]",0.008 and 0.001 and 0.015 and 0.002
same,"Total IgE (Serum), individual mice m1-m4","[2]; Group 4 (treated 14 days, recent Ova challenge)",0.310 and 0.298 and 0.984 and 0.890
same,"IL-4 Assays, pg/ml IL-4, Avg. of Group",[2]; [4],2.92 pg/mL
same,"Total IgM + IgG (1 week splenocyte cultures), Avg.",[2]; [4],17.16
same,Total IgE (1 week splenocyte cultures),"[2]; Group 4, 0 µg/ml Ova",0.026 ng/mL
same,"Total IgE (1 week splenocyte cultures), Avg.","[2]; Group 4, 0 µg/ml Ova",0.007
same,"IL-4 Assays, pg/ml IL-4, Avg. of Group","[2]; Group 4, 5 µg/ml Ova",8.05 pg/mL
same,"IL-4 Assays, pg/ml IL-4, individual mice m1-m4","[2]; Group 4, 5 µg/ml Ova",10.40 pg/mL and 12.77 pg/mL and 4.59 pg/mL and 4.45 pg/mL
same,Total IgE (1 week splenocyte cultures),"[2]; Group 4, 5 µg/ml Ova",0.096 ng/mL
same,"Total IgE (1 week splenocyte cultures), Avg.","[2]; Group 4, 5 µg/ml Ova",0.024
same,"Total IgM + IgG (1 week splenocyte cultures), Avg.","[2]; Group 4, 5 µg/ml Ova",163.95
same,"Total IgE (1 week splenocyte cultures), individual mice m1-m4","[2]; Group 4, 5 µg/ml Ova, listed as CRD-Leu4Ile11Cys13peptide 3(3-12)[MCP-1]",0.009 (2×) and 0.047 and 0.031
same,"Total IgM + IgG (1 week splenocyte cultures), individual mice m1-m4","[2]; Group 4, 5 µg/ml Ova, listed as CRD-Leu4Ile11Cys13 peptide 3(3-12)[MCP]",189.07 and 249.75 and 148.16 and 68.83
same,"IL-4 Assays, pg/ml IL-4, Avg. of Group","[2]; Group 4, 50 µg/ml Ova",14.45 pg/mL
same,"IL-4 Assays, pg/ml IL-4, individual mice m1-m4","[2]; Group 4, 50 µg/ml Ova",14.38 pg/mL and 22.08 pg/mL and 10.25 pg/mL and 11.09 pg/mL
